From article PMC11494886, “Discovery and design of molecular glue enhancers of CDK12–DDB1 interactions for targeted degradation of cyclin K” (RSC Chemical Biology, 2024)

Columns and labels:
Type in all cases: binding
DDB1 = biological target: T1, DDB1 (Homo sapiens, UniProt Q16531, DEL396-705); experiment: Microscale thermophoresis, DDB1 without CDK12/cyclin K; conditions: MST, absence of CDK12/cyclin K
T1 construct: made in house; host or cells: Spodoptera frugiperda SF9 insect cells (Bac-to-Bac)
Procedure: Finally, the capacity of small molecules to induce a ternary complex between CDK12/cyclin K and DDB1 in vitro was assessed by microscale thermophoresis (MST). […]
The gene of human DDB1 (Uniprot: Q16531) with a beta-propeller B domain deletion (ΔBPB: a.a. 396–705 deleted) was subcloned into pFastBac1 vector with an N-terminal His8-tag and a HRV 3C cleavage site (GeneScript), and the recombinant protein was expressed in Spodoptera frugiperda SF9 insect cells in sf900™ II SFM culture medium using the Bac to Bac™ baculovirus expression system (Gibco™). […]
A protocol to assess ternary binding of molecular glues with CDK12/cycK and DDB1 by MST was established using published procedures for PROTAC interaction with bromodomains and E3 ubiquitin ligases.[38] […] After 5 min incubation at room temperature, the samples were loaded in MO-K022 standard treated capillaries (NanoTemper Technologies) and measured by a Monolith NT.115 Pico instrument (NanoTemper Technologies) at 40% MST power and 20% excitation power (auto-detect) on Pico-Red detector at 22 °C. MST traces were recorded using standard parameters: 5 s MST power off, 30 s MST power on and 5 s MST power off. […]

Cdk12/CycK and DDB1ΔB [1] = biological target: T2, Cdk12/CycK and DDB1ΔB (Homo sapiens, UniProt Q16531+Q9NYV4, DEL396-705); experiment: Analytical size-exclusion chromatography of DDB1ΔB and Cdk12/CycK; conditions: 20 μM proteins, 60 μM compound, vs DMSO and THZ531
T2 construct: the Cdk12 (714–1063)/CycK (1–267) complex and the DDB1ΔB protein; made in house; host or cells: Sf9 insect cells (MultiBacTurbo)
Procedure: Analytical size-exclusion chromatography was employed to investigate compound-induced protein–protein interactions between the heterodimeric Cdk12 (714–1063)/CycK (1–267) complex and the RING E3 ligase-associated adaptor protein DDB1ΔB. The analysis was conducted on an Agilent 1260 Infinity II HPLC system (Agilent Technologies), coupled with a Superdex 200 Increase 3.2/300 column (Cytiva), pre-equilibrated in Cdk12 SEC buffer (20 mM Hepes pH 7.8, 400 mM NaCl, 1 mM TCEP) supplemented with 1 g L^−1 carboxymethyl-dextran. Purified proteins, combined in equimolar ratios (20 μM Cdk12/CycK and DDB1ΔB, respectively) were supplemented with 3-fold molar excess of small molecular compounds. The resulting protein mixtures were diluted to a final volume of 25 μL using the kinases SEC-buffer ensuring a final DMSO concentration of 2%, followed by an incubation period of 10 min. Upon injection into the analytical system, the chromatography was conducted at a controlled flow rate of 0.05 mL min^−1, with protein absorbance monitored at 280 nm wavelength. Peak fractions were collected drop by drop and subsequently subjected to analysis via dynamic light scattering (DLS) to assess their size distribution, along with SDS-PAGE analysis to determine the composition of the protein complex.

Cdk12/CycK and DDB1ΔB [2] = biological target: T2, Cdk12/CycK and DDB1ΔB; experiment: Dynamic light scattering of SEC peak fractions; conditions: SEC peak middle fractions, vs negative controls
Procedure: To evaluate particle size distribution in liquid solution, dynamic light scattering was employed. Specifically, 10 μL fractions from the central region of peaks obtained in analytical size exclusion chromatography runs were analyzed. This analysis was performed using a DynaPro NanoStar 672 (Wyatt Technology) in a disposable DLS MicroCuvette (Wyatt Technology), while maintaining a constant temperature of 25 °C. Each measurement was conducted with an acquisition time of 3 s, and each data point depicted in the Results section represents the average of 20 individual DLS measurements. The hydrodynamic radius of the protein samples was determined using the processing and analysis software DYNAMICS.

T2 sequence (Q9NYV4 714-1063, stated change not applied): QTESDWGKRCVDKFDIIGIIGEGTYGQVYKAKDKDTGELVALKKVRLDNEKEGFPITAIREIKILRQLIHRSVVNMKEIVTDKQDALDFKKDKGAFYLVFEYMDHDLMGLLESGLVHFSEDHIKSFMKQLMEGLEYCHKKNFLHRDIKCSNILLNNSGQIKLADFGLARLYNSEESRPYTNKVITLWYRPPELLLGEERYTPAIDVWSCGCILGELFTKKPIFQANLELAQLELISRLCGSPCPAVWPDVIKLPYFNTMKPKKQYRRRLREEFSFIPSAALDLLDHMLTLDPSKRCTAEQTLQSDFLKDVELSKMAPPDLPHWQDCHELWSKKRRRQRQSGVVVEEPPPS
T2 sequence (O75909 1-267 partner limits assumed): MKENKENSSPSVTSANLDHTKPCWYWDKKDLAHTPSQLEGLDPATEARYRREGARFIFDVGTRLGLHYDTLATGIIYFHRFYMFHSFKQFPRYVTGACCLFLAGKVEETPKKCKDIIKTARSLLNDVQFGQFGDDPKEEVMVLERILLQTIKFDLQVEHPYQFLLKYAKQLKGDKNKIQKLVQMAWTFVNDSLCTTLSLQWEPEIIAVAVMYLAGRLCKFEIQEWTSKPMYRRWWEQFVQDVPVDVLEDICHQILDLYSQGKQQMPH
T2 sequence (Q16531 with tags, fused parts or gaps DEL396-705): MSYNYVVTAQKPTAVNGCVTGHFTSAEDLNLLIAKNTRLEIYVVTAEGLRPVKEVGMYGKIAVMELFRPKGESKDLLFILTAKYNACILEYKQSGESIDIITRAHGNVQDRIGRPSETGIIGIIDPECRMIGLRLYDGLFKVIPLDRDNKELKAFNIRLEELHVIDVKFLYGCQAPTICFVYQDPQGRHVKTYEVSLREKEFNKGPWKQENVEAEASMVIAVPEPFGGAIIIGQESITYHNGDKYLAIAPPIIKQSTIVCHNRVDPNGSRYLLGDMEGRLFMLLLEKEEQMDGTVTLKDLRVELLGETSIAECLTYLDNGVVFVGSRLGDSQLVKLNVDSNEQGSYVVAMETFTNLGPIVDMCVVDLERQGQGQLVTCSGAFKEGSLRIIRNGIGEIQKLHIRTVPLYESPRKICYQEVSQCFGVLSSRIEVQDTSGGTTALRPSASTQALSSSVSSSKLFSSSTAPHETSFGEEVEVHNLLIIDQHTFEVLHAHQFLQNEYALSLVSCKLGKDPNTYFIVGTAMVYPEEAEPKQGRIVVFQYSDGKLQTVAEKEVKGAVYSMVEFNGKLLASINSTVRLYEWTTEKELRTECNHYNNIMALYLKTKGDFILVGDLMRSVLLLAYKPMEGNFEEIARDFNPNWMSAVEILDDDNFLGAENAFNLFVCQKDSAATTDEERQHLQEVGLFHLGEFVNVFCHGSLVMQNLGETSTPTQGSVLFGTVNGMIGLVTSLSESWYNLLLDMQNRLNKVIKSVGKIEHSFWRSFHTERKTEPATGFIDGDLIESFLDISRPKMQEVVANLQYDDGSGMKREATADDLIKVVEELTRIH
T1 sequence (Q16531 with tags, fused parts or gaps DEL396-705): as above

binding to DDB1 (DDB1): did not show binding potential for DDB1
retention time in analytical SEC (ternary complex formation) (Cdk12/CycK and DDB1ΔB [1]): reduced retention times
hydrodynamic radius (DLS) (Cdk12/CycK and DDB1ΔB [2]): significantly increased
Compound: Cn1cc(-n2cnc3c(NCc4nc5cc(Cl)c(Cl)cc5[nH]4)nc(N4CCOCC4)nc32)cn1 [SR-4835]
